The values that follow come from patent publication US20240197813A1, “TREATMENT OF DYSPHAGIA” (OT4B, priority 2021, published 2024).

“Also recorded” adds a separate entry of the source.

For series [1], the system named is dysphagia in patient with neurodevelopmental disorder and hypothalamic disorder. As to the kind of experiment: Case report PATIENT 2: daily intranasal oxytocin, VFSS and clinical symptoms. In kind it is in vivo, human. To be noted: 16 IU daily intranasal, 3 weeks. The text has this: PATIENT 2 was […]. They suffered from neurodevelopmental disorder and presented hypothalamic disorder.
The VFSS was abnormal including slow pharyngeal transit with pharyngeal residues and slow oesophageal transit with oesophageal reflux and stasis.
They received daily 16 IU of intranasal OXT during 3 weeks.

Series [2] relates to infants with PWS under 6 months old. To be noted: cited from earlier work.
Series [3] deals with dysphagia in patient with Prader-Willi syndrome. As to the kind of experiment: Case report PATIENT 1: daily intranasal oxytocin, videofluoroscopic swallow study (VFSS). Format: in vivo, human. To be noted: PWS patient, 8 IU daily intranasal, 3 weeks. The text has this: PATIENT 1 was […] with Prader-Willi syndrome due to maternal uniparental disomy diagnosed soon after at birth.
The videofluoroscopic swallow study (VFSS) was abnormal with prolonged oesophageal transit and decreased peristalsis and abnormal closure of upper oesophageal sphincter.
They received 8IU of daily intranasal OXT during 3 weeks.

`CC[C@H](C)[C@@H]1NC(=O)[C@H](Cc2ccc(O)cc2)NC(=O)[C@@H](N)CSSC[C@@H](C(=O)N2CCC[C@H]2C(=O)N[C@@H](CC(C)C)C(=O)NCC(N)=O)NC(=O)[C@H](CC(N)=O)NC(=O)[C@H](CCC(N)=O)NC1=O` [oxytocin]: in series [1], the “clinical symptoms of dysphagia” value is recorded as “improved clinical symptoms of dysphagia”; the oesophageal transit entry is recorded as “normalize”; the “oropharyngeal initiation and synchronisation” value was “normalize oropharyngeal initiation and synchronization”; the “stasis and reflux on VFSS after treatment” value is on record as “neither stasis nor reflux”. In addition, the tolerability of treatment entry in series [1] is reported as “well tolerated”. In series [1] (listed as OXT), the oesophageal transit entry is reported as “normalization of oesophageal transit”; the “oropharyngeal initiation and synchronisation” value is “normalization of oropharyngeal initiation and synchronisation”. Besides, in series [2], the “tolerability of intranasal administration” value is “well-tolerated”. The “feeding and social skills” value in series [2] (intranasal) is “significantly improves”. In series [3], the VFSS overall result was “improved VFSS”, the “oesophageal transit (VFSS)” value is listed as “improved oesophageal transit; also recorded: improve esophageal transit”, the “peristalsis (VFSS)” value is listed as “complete normalization of peristalsis” and the tolerability of treatment entry is listed as “well tolerated”. Further, the “upper oesophageal sphincter closure (VFSS)” value in series [3] is on record as “normal upper oesophageal sphincter closure; also recorded: complete normalization”.
